Measured values from patent publication US10214512B2, “Factor XIA inhibitors” (MERCK SHARP & DOHME CORP., priority 2015, dated 2019).

Legend:
[1] = target: purified human Factor XIa (Homo sapiens (Human), UniProt P03951); assay: Factor XIa Assay; format: biochemical; details: purified human Factor XIa 40 pM; substrate Z-Gly-Pro-Arg-AFC 100 μM; 50 mM HEPES pH 7.4; read-out: Human FXIa Ki
Experimental: (§1) The effectiveness of a compound of the present invention as an inhibitor of Coagulation Factor XIa can be determined using a relevant purified serine protease, and an appropriate synthetic substrate. The rate of hydrolysis of the chromogenic or fluorogenic substrate by the relevant serine protease was measured both in the absence and presence of compounds of the present invention. Assays were conducted at rt or at 37° C. […] A decrease in the rate of fluorescence change in the presence of inhibitor is indicative of enzyme inhibition. Such methods are known to one skilled in the art. The results of this assay are expressed as the inhibitory constant, Ki.
Factor XIa determinations were made in 50 mM HEPES buffer at pH 7.4 containing 150 mM NaCl, 5 mM CaCl2, and 0.1% PEG 8000 (polyethylene glycol; JT Baker or Fisher Scientific). Determinations were made using purified human Factor XIa at a final concentration of 40 pM (Sekisui Diagnostics) and he synthetic substrate, Z-Gly-Pro-Arg-AFC, TFA salt (Sigma #C0980) at a concentration of 100 μM.
Times required to achieve equilibration between enzyme and inhibitor were determined in control experiments. Initial velocities of product formation in the absence (Vo) or presence of inhibitor (Vi) were measured. Assuming competitive inhibition, and that unity is negligible compared Km/[S], [I]/e, and [I]/e (where [S], [I], and e respectively represent the total concentrations, of substrate, inhibitor and enzyme), the equilibrium constant (Ki) for dissociation of the inhibitor from the enzyme can be obtained from the dependence of Vo/Vi on [I] shown in the following equation.

[2] = target: purified Human plasma Kallikrein (Homo sapiens (Human), UniProt P03952); assay: Kallikrein Assay; format: biochemical; details: purified Human plasma Kallikrein 0.5 nM; substrate Acetyl-K-P-R-AFC; 50 mM HEPES pH 7.4; Ki from IC50 by Cheng Prusoff
purified Human plasma Kallikrein, sequence (P03952 391-638): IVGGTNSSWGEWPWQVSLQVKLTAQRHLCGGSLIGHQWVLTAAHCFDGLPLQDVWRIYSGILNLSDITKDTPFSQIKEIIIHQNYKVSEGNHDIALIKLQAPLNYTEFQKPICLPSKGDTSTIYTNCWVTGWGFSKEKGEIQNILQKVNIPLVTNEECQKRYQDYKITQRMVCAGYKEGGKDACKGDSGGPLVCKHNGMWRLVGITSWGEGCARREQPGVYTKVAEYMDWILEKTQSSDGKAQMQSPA
purified Human plasma Kallikrein, sequence (P03952 20-390 partner): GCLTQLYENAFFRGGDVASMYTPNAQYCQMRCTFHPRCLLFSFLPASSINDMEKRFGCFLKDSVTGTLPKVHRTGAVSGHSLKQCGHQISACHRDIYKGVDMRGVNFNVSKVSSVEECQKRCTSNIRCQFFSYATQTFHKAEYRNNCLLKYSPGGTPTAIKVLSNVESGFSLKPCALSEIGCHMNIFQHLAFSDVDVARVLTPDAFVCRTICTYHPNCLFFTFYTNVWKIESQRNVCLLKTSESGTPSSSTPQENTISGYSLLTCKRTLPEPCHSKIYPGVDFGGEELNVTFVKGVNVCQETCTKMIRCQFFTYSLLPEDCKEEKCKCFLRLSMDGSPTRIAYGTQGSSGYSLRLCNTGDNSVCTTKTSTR
Experimental: as §1, with “Kallikrein” for “Coagulation Factor XIa”
Kallikrein determinations were made in 50 mM HEPES buffer at pH 7.4 containing 150 mM NaCl, 5 mM CaCl2, and 0.1% PEG 8000 (polyethylene glycol; Fisher Scientific). Determinations were made using purified Human plasma Kallikrein at a final concentration of 0.5 nM (Enzyme Research Laboratories) and the synthetic substrate, Acetyl-K-P-R-AFC (Sigma # C6608) at a concentration of […].
Times required to achieve equilibration between enzyme and inhibitor were determined in control experiments. […] IC50 was determined by inflection point from a four parameter logistic curve fit. Ki was calculated using the Cheng Prusoff equation, Ki=IC50/(1+([S]/Km)).

purified human Factor XIa, sequence (P03951 388-625): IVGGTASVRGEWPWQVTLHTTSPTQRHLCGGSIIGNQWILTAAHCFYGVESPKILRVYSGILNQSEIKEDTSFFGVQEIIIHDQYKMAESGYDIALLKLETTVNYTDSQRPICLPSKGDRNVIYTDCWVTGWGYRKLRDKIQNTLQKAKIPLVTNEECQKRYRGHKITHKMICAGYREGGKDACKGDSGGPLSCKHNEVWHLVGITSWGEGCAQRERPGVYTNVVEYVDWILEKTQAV
purified human Factor XIa, sequence (P03951 19-387 partner): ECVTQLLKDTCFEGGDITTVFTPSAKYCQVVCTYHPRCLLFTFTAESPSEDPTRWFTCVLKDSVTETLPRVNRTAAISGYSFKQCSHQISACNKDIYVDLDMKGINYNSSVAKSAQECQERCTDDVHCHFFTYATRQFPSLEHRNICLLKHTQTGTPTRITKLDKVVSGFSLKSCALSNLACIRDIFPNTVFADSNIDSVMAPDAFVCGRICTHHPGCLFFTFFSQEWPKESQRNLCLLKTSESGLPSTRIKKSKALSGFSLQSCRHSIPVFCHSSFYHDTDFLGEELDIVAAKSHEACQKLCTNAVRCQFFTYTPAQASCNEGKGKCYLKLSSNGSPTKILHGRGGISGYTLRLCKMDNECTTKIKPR

Row | Compound | Ki [1] | Ki [2]
1 | 2-(2^5-carboxy-4-oxo-3-aza- 1(1,3),2(1,2)- dibenzenacyclononaphane-9-yl)-5- (3-chloro-2,6-difluorophenyl)pyridine 1-oxide [Example 9] | 13.6 nM | 379 nM
2 | COC(=O)Nc1ccc2c(c1)NC(=O)CC1CC1CC(c1ccc(-c3c(F)ccc(Cl)c3F)c[n+]1[O-])c1nc-2c[nH]1 (racemic) [Example 153] | 3 nM | 14.4 nM
3 | COC(=O)Nc1ccc2c(c1)NC(=O)CC1CC1CC(c1ccc(-c3c(F)cccc3C(F)F)c[n+]1[O-])c1nc-2c(C)[nH]1 (racemic) [Example 156] | 1.55 nM | 13.6 nM
4 | COC(=O)Nc1ccc2c(c1)NC(=O)CC1CC1CC(c1ccc(-c3c(C(F)F)ccc(Cl)c3F)c[n+]1[O-])c1nc-2c(C)[nH]1 (racemic) [Example 157] | 0.45 nM | 2.04 nM
5 | COC(=O)Nc1ccc2c(c1)NC(=O)CC1CC1CC(c1ccc(-c3c(C(F)F)ccc(C)c3F)c[n+]1[O-])c1nc-2c(C)[nH]1 (racemic) [Example 158] | 1.07 nM | 4.92 nM
6 | COC(=O)Nc1ccc2c(c1)NC(=O)CC1CC1CC(c1ccc(-c3c(OC(F)F)ccc(Cl)c3F)c[n+]1[O-])c1nc-2c(C)[nH]1 (racemic) [Example 159] | 0.66 nM | 3.5 nM
7 | O=C1CCCCC(c2ccc(-c3cc(Cl)ccc3-n3cnnn3)c[n+]2[O-])c2c[nH]c(n2)-c2cc(F)ccc2N1 (racemic) [Example 160, (Z)-5-(5-chloro-2-(1H-tetrazol-1-yl)phenyl)-2-(2^5-fluoro-4-oxo-1^1H-3-aza-1(2,4)-imidazola-2(1,2)-benzenacyclononaphane-9-yl)pyridine 1-oxide] | 0.47 nM | 4 nM
8 | O=C1CCCCC(c2ccc(-c3c(-n4cnnn4)ccc(Cl)c3F)c[n+]2[O-])c2c[nH]c(n2)-c2cc(F)ccc2N1 (racemic) [Example 161, (Z)-5-(3-chloro-2-fluoro-6-(1H-tetrazol-1-yl)phenyl)-2-(2^5-fluoro-4-oxo-1^1H-3-aza-1(2,4)-imidazola-2(1,2)-benzenacyclononaphane-9-yl)pyridine 1-oxide] | 0.55 nM | 1.35 nM
9 | O=C1CCCCC(c2ccc(-c3c(-n4cnnn4)ccc(Cl)c3F)c[n+]2[O-])c2cccc(c2)-c2cc(C(=O)O)ccc2N1 (single isomer, unassigned) [Example 5-a, 2-(2^5-carboxy-4-oxo-3-aza-1(1,3),2(1,2)-dibenzenacyclononaphane-9-yl)-5-(3-chloro-2-fluoro-6-(1H-tetrazol-1-yl)phenyl)pyridine 1-oxide] | 0.13 nM | 3.15 nM
10 | COC(=O)Nc1ccc2c(c1)NC(=O)CCCCC(c1ccc(-c3cc(Cl)ccc3-n3cnnn3)c[n+]1[O-])c1cccc-2c1 (single isomer, unassigned) [Example 6-a, 5-(5-Chloro-2-(1H-tetrazol-1-yl)phenyl)-2-(2^4-((methoxycarbonyl)amino)-4-oxo-3-aza-1(1,3),2(1,2) -dibenzenacyclononaphane-9-yl)pyridine 1-oxide] | 0.1 nM | 0.29 nM
11 | O=C1CCCCC(c2ccc(-c3cc(Cl)cc(F)c3-n3cnnn3)c[n+]2[O-])c2cccc(c2)-c2cc(F)ccc2N1 (single isomer, unassigned) [Example 7-a, 5-(5-chloro-3-fluoro-2-(1H-tetrazol-1-yl)phenyl)-2-(2^5-fluoro-4-oxo-3-aza-1(1,3),2(1,2)-dibenzenacyclononaphane-9-yl)pyridine 1-oxide] | 2.4 nM | 238 nM
12 | O=C1CCCCC(c2ccc(-c3cc(Cl)ccc3-n3cnnn3)c[n+]2[O-])c2nc(c[nH]2)-c2cc(F)ccc2N1 (single isomer, unassigned) [Example 11-a, (Z)-5-(5-Chloro-2-(1H-tetrazol-1-yl)phenyl)-2-(2^5-fluoro-4-oxo-1^1h-3-aza-1(4,2)-imidazola-2(1,2)-benzenacyclononaphane-9-yl)pyridine 1-oxide] | 0.22 nM | 2.12 nM
13 | COC(=O)Nc1ccc2c(c1)NC(=O)CCCC[C@H](c1ccc(-c3c(F)cccc3-n3cc(C(F)(F)F)cn3)c[n+]1[O-])c1nc-2c(C)[nH]1 (single isomer, unassigned) [Example 137] | – | 418 nM
14 | COC(=O)Nc1ccc2c(c1)NC(=O)[C@H](C)CCC[C@H](c1ccc(-c3c(F)cccc3F)c[n+]1[O-])c1nc-2c(C2CC2)[nH]1 (single isomer, unassigned) [Example 145-a] | – | 0.3 nM
15 | COC(=O)Nc1ccc2c(c1)NC(=O)[C@@H](C)CCC[C@H](c1ccc(-c3c(F)cccc3F)c[n+]1[O-])c1nc-2c(C2CC2)[nH]1 (single isomer, unassigned) [Example 145-c] | – | 1.1 nM
16 | CCc1[nH]c2nc1-c1ccc(NC(=O)OC)cc1NC(=O)[C@H](C)CCC[C@@H]2c1ccc(-c2c(F)cccc2OC(F)F)c[n+]1[O-] (single isomer, unassigned) [Example 146-a] | – | 0.71 nM
17 | CCc1[nH]c2nc1-c1ccc(NC(=O)OC)cc1NC(=O)[C@@H](C)CCC[C@@H]2c1ccc(-c2c(F)cccc2OC(F)F)c[n+]1[O-] (single isomer, unassigned) [Example 146-c] | – | 3.46 nM
18 | COC(=O)Nc1ccc2c(c1)NC(=O)[C@H](C)CCC[C@H](c1ccc(-c3cc(F)ccc3OC(F)(F)F)c[n+]1[O-])c1nc-2c(C)[nH]1 (single isomer, unassigned) [Example 149-a] | – | 2.02 nM
19 | COC(=O)Nc1ccc2c(c1)NC(=O)[C@@H](C)CCC[C@@H](c1ccc(-c3cc(F)ccc3OC(F)(F)F)c[n+]1[O-])c1nc-2c(C)[nH]1 (single isomer, unassigned) [Example 149-b] | – | 53.7 nM
20 | COC(=O)Nc1ccc2c(c1)NC(=O)[C@@H](C)CCC[C@H](c1ccc(-c3cc(F)ccc3OC(F)(F)F)c[n+]1[O-])c1nc-2c(C)[nH]1 (single isomer, unassigned) [Example 149-c] | – | 7.71 nM
21 | COC(=O)Nc1ccc2c(c1)NC(=O)[C@H](C)CCC[C@H](c1ccc(-c3c(OC(F)F)ccc(F)c3F)c[n+]1[O-])c1nc-2c(C)[nH]1 (single isomer, unassigned) [Example 150-a] | – | 0.51 nM
22 | COC(=O)Nc1ccc2c(c1)NC(=O)[C@@H](C)CCC[C@@H](c1ccc(-c3c(OC(F)F)ccc(F)c3F)c[n+]1[O-])c1nc-2c(C)[nH]1 (single isomer, unassigned) [Example 150-b] | – | 31.2 nM
23 | COC(=O)Nc1ccc2c(c1)NC(=O)[C@@H](C)CCC[C@H](c1ccc(-c3c(OC(F)F)ccc(F)c3F)c[n+]1[O-])c1nc-2c(C)[nH]1 (single isomer, unassigned) [Example 150-c] | – | 1.5 nM
24 | COC(=O)Nc1ccc2c(c1)NC(=O)CC[C@@H](C)C[C@H](c1ccc(-c3c(F)ccc(Cl)c3F)c[n+]1[O-])c1nc-2c(C)[nH]1 (single isomer, unassigned) [Example 151-a] | – | 0.16 nM
25 | COC(=O)Nc1ccc2c(c1)NC(=O)CC[C@H](C)C[C@H](c1ccc(-c3c(F)ccc(Cl)c3F)c[n+]1[O-])c1nc-2c(C)[nH]1 (single isomer, unassigned) [Example 151-b] | – | 10.8 nM
26 | COC(=O)Nc1ccc2c(c1)NC(=O)CC[C@@H](C)C[C@@H](c1ccc(-c3c(F)ccc(Cl)c3F)c[n+]1[O-])c1nc-2c(C)[nH]1 (single isomer, unassigned) [Example 151-c] | – | 29 nM
27 | COC(=O)Nc1ccc2c(c1)NC(=O)CC[C@@H](C)C[C@H](c1ccc(-c3c(F)cccc3OC(F)F)c[n+]1[O-])c1nc-2c(C)[nH]1 (single isomer, unassigned) [Example 152-a] | – | 2.76 nM
28 | COC(=O)Nc1ccc2c(c1)NC(=O)CC[C@H](C)C[C@H](c1ccc(-c3c(F)cccc3OC(F)F)c[n+]1[O-])c1nc-2c(C)[nH]1 (single isomer, unassigned) [Example 152-b] | – | 114 nM
29 | C[C@H]1CCC[C@@H](c2ccc(-c3cc(Cl)ccc3-n3cc(C(F)(F)F)cn3)c[n+]2[O-])c2cccc(c2)-c2c(cnn2C(F)F)NC1=O (single isomer, unassigned) [Example 168-d] | – | 161 nM
